In patent publication US9428455B2, “Process for annealing amorphous atorvastatin” (Pfizer Inc., priority 2005, dated 2016):
Counter-ions that a name gives are not always drawn.

Type: physicochemical
Experimental: The amorphous atorvastatin calcium was loaded into 20 ml glass vials (approximately 1 g per vial), and heated at 100±5° C. for 1, 6, and 18 hours in an oven. After heating, the powder was transferred from the vials to 15 ml amber screw-cap bottles, and set-up on stability at 50° C./20% RH. In addition, unannealed amorphous atorvastatin calcium, which was loaded in 15 ml amber screw-cap bottles, was placed on stability as a control.
The annealed amorphous atorvastatin calcium was analyzed for impurities and atorvastatin degradation products using HPLC, by evaluating the ratio of peak integration compared to the total integrated peak areas. […] The material was analyzed by HPLC (Zorbax SB C8 column, 25.0 cm×4.6 mm, HPLC: Hewlett Packard 1100 series, 20 μl injection volume, flow of 1.5 mL/min). […]
Stability data obtained for three annealed samples and the control sample are graphically illustrated in FIGS. 1 to 4. […] In order to express stabilization by annealing in a more quantitative term, relative degradation rate constants, krel, were determined from the data presented in FIGS. 1 to 4. The krel were calculated using Eq. 1: krel=(k/k0)*100% Eq. 1 where k is the zero order rate constant for annealed samples, and k0 is the zero order rate constant for the control sample; k and k0 were determined from the data presented in FIGS. 1 to 4.

Relative degradation rate for total degradation products, less than in the control: 34%
Structure (SMILES): CC(C)c1c(C(=O)Nc2ccccc2)c(-c2ccccc2)c(-c2ccc(F)cc2)n1CC[C@@H](O)C[C@@H](O)CC(=O)O (relative stereo) [amorphous atorvastatin calcium, [R—(R*,R*)]-2-(4-fluorophenyl)-β,δ-dihydroxy-5-(1-methylethyl)-3-phenyl-4-[(phenylamino)carbonyl]-1H-pyrrole-1-heptanoic acid calcium salt (2:1) trihydrate]
